Measured values taken from article PMC6361133, “A chemical-genetics approach to study the role of atypical Protein Kinase C in Drosophila” (Development (Cambridge, England), 2019).

Biological target: atypical Protein Kinase C (aPKC), analogue-sensitive aPKC^as4 (Drosophila melanogaster, UniProt A1Z9X0, I342A/T405A)
Experiment: in vitro […]-ATP peptide kinase assay with immunoprecipitated FLAG-aPKC ([…] ATP, […] MgCl2)
Format: biochemical

atypical Protein Kinase C (aPKC), analogue-sensitive aPKC^as4, sequence (A1Z9X0 whole entry I342A/T405A): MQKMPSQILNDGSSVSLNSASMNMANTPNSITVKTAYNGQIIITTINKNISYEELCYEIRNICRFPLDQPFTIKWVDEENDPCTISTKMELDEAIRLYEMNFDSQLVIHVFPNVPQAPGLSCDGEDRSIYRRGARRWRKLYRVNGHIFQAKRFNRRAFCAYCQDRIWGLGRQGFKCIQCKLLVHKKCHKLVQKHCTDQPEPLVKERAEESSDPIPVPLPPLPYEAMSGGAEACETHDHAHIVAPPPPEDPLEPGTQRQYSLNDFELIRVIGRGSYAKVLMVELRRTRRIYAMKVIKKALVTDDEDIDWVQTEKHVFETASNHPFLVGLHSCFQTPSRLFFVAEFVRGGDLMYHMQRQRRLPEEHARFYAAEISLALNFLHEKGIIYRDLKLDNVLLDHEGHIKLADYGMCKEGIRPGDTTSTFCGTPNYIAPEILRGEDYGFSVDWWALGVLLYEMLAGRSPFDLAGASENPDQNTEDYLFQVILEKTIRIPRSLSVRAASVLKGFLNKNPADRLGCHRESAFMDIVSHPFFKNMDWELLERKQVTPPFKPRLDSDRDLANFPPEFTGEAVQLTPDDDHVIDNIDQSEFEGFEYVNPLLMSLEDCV

CC(C)(C)n1nc(-c2cccc3ccccc23)c2c(N)ncnc21 [1NA-PP1]
IC50: ~100 nM
